≈ marks a conversion by molar mass, not a printed value.
Tests used:
Escherichia coli [1] = assay: Antibacterial activity against Escherichia coli ATCC 25922 assessed as inhibition of bacterial growth by broth microdilution method; assay type: functional
[2] = test system: Salmonella enterica subsp. enterica serovar Typhimurium; assay: Inhibition of Multidrug resistance efflux pump in Salmonella enterica serovar typhimurium SL1344 (SE03) assessed as relative fluorescence index using ethidium bromide as substrate at 50 uM by fluorescence based analysis
Staphylococcus aureus [3] = assay: Antibacterial activity against Staphylococcus aureus ATCC 25923 assessed as inhibition of bacterial growth by broth microdilution method; assay type: functional
[4] = Inhibition of quorum sensing system in Chromobacterium violaceum CV026 assessed as reduction in pigment production co-cultured with Sphingomonas paucimobilis Ezf 10-17 for 24 to 48 hrs; conditions: time 24-48 hrs
Trichophyton rubrum = assay: Antifungal activity against Trichophyton rubrum FF5 assessed as inhibition of fungal growth by broth microdilution method; assay type: functional
Serratia marcescens = assay: Inhibition of quorum sensing system in Serratia marcescens AS-1 assessed as reduction in pigment production incubated for 24 to 48 hrs; conditions: time 24-48 hrs
Staphylococcus aureus [5] = assay: Inhibition of biofilm formation in Staphylococcus aureus 272123 at 100 uM incubated for 48 hrs by crystal violet staining based analysis; assay type: functional
Enterococcus faecalis [6] = assay: Antimicrobial adjuvant activity against Enterococcus faecalis B3/101 assessed as potentiation of vancomycin-induced antibacterial activity by measuring fold reduction in vancomycin MIC at 64 ug/ml by broth microdilution method; assay type: functional; conditions: dose 64 µg/ml
Staphylococcus aureus [7] = assay: Antibacterial activity against methicillin and ofloxacin-resistant Staphylococcus aureus 272123 assessed as inhibition of bacterial growth by broth microdilution method; assay type: functional
Escherichia coli [8] = assay: Antimicrobial adjuvant activity against ESBL-producing Escherichia coli SA/2 assessed as potentiation of cefotaxime-induced antibacterial activity by measuring fold reduction in cefotaxime MIC at 64 ug/ml by broth microdilution method; assay type: functional; conditions: dose 64 µg/ml
Pseudomonas aeruginosa [9] = assay: Antibacterial activity against Pseudomonas aeruginosa ATCC 27853 assessed as inhibition of bacterial growth by broth microdilution method; assay type: functional
[10] = Inhibition of quorum sensing system in Chromobacterium violaceum wild type 85 assessed as reduction in pigment production incubated for 24 to 48 hrs; conditions: time 24-48 hrs
Enterococcus faecalis [11] = assay: Antibacterial activity against Enterococcus faecalis ATCC 29212 assessed as inhibition of bacterial growth by broth microdilution method; assay type: functional
[12] = Inhibition of Multidrug resistance efflux pump in Staphylococcus aureus 272123 assessed as relative fluorescence index using ethidium bromide as substrate at 50 uM by fluorescence based analysis
Aspergillus fumigatus = assay: Antifungal activity against Aspergillus fumigatus ATCC 204305 assessed as inhibition of fungal growth by broth microdilution method; assay type: functional
Staphylococcus aureus [13] = assay: Inhibition of biofilm formation in Staphylococcus aureus ATCC 25923 at 100 uM incubated for 48 hrs by crystal violet staining based analysis; assay type: functional
Candida albicans [14] = assay: Antifungal activity against Candidia albicans ATCC 10231 assessed as inhibition of fungal growth by broth microdilution method; assay type: functional
Salmonella typhimurium = assay: Antibacterial activity against Salmonella enterica serovar typhimurium SL1344 (SE03) assessed as inhibition of bacterial growth by broth microdilution method; assay type: functional, Salmonella enterica subsp. enterica serovar Typhimurium
Candida albicans [15] = assay: Antifungal activity against Candida albicans ATCC 10231 assessed as inhibition of fungal growth incubated for 18 hrs by optical density based analysis; assay type: functional
[16] = test system: Salmonella enterica subsp. enterica serovar Typhimurium; assay: Inhibition of Multidrug resistance efflux pump in Salmonella enterica serovar typhimurium SL1344 (SE03) assessed as relative fluorescence index using ethidium bromide as substrate at 25 uM by fluorescence based analysis
[17] = Inhibition of Multidrug resistance efflux pump in Staphylococcus aureus 272123 assessed as relative fluorescence index using ethidium bromide as substrate at 25 uM by fluorescence based analysis
Enterobacter cloacae = assay: Antibacterial activity against Enterobacter cloacae 45301 assessed as inhibition zone incubated for 24 hrs by agar plate method; assay type: functional
Micrococcus luteus = assay: Antibacterial activity against Micrococcus luteus 28001 assessed as inhibition zone incubated for 24 hrs by agar plate method; assay type: functional
Klebsiella pneumoniae = assay: Antibacterial activity against Klebsiella pneumoniae ATCC 13883 assessed as inhibition zone incubated for 24 hrs by disc diffusion method; assay type: functional
Pseudomonas aeruginosa [18] = assay: Antibacterial activity against Pseudomonas aeruginosa ATCC 27853 assessed as inhibition zone incubated for 24 hrs by disc diffusion method; assay type: functional
[19] = test system: Staphylococcus epidermidis; assay: Antibacterial activity against Staphylococcus epidermidis ATCC 12228 assessed as inhibition zone incubated for 24 hrs by disc diffusion method; assay type: functional
Escherichia coli [20] = assay: Antibacterial activity against Escherichia coli ATCC 25922 assessed as inhibition zone incubated for 24 hrs by disc diffusion method; assay type: functional
Staphylococcus aureus [21] = assay: Antibacterial activity against Staphylococcus aureus ATCC 25923 assessed as inhibition zone incubated for 24 hrs by disc diffusion method; assay type: functional

SMILES	MIC (Escherichia coli [1])	RFU [2]	MIC (Staphylococcus aureus [3])	Activity [4]	MIC (Trichophyton rubrum)	Activity (Serratia marcescens)	inhibition at 100 µM (Staphylococcus aureus [5])	fold change (FC) (Enterococcus faecalis [6])	MIC (Staphylococcus aureus [7])	MIC (Pseudomonas aeruginosa [9])	Activity [10]	MIC (Enterococcus faecalis [11])	RFU [12]	MIC (Aspergillus fumigatus)	inhibition at 100 µM (Staphylococcus aureus [13])	MIC (Candida albicans [14])	MIC (Salmonella typhimurium)	also measured
COc1cccc(/C=C2\COC/C(=C\c3cccc(OC)c3OC)C2=O)c1OC	> 64 µg/mL	0.12	> 64 µg/mL	31 mm	> 128 µg/mL	0 mm	46.9%	32	> 64 µg/mL	> 64 µg/mL	0 mm	> 64 µg/mL	0.44	> 128 µg/mL	0%	> 128 µg/mL	> 64 µg/mL	fold change (FC) (Escherichia coli [8]): 16
COc1cc(OC)c2c(c1)OC/C(=C\c1ccccc1)C2=O																		MIC (Candida albicans [15]): 25 µM (≈ 7.41 µg/mL)
N#CC(C#N)=NNc1cccc(Cl)c1																		RFU [16]: 0.3
COC(=O)[C@H]1[C@H]2C[C@@H]3c4[nH]c5cc(OC)ccc5c4CCN3C[C@H]2C[C@@H](OC(=O)c2cc(OC)c(OC)c(OC)c2)[C@@H]1OC [RESERPINE]							72.1%								22.3%			RFU [17]: 0.35
COc1cc(/C=C2\CCC/C(=C\c3cc(OC)c(OC)c(OC)c3)C2=O)cc(OC)c1OC																		inhibition zone (IZ) (Enterobacter cloacae): 10 mm; inhibition zone (IZ) (Micrococcus luteus): 9 mm
COc1ccccc1/C=C1\CCc2ccccc2C1=O	> 64 µg/mL	1.32	> 64 µg/mL	48 mm	> 128 µg/mL	0 mm	83.3%	2	> 64 µg/mL	> 64 µg/mL	0 mm	> 64 µg/mL	0.88	> 128 µg/mL	0%	> 128 µg/mL	> 64 µg/mL	fold change (FC) (Escherichia coli [8]): 2
COc1cccc(/C=C2\CCc3ccccc3C2=O)c1																		inhibition zone (IZ) (Klebsiella pneumoniae): 18 mm; inhibition zone (IZ) (Pseudomonas aeruginosa [18]): 18 mm; inhibition zone (IZ) [19]: 15 mm; inhibition zone (IZ) (Escherichia coli [20]): 17 mm; inhibition zone (IZ) (Staphylococcus aureus [21]): 18 mm
O=C1/C(=C/c2ccccc2Br)CC/C1=C\c1ccccc1Br																		inhibition zone (IZ) (Enterobacter cloacae): 10 mm
COc1cc(OC)c(OC)cc1/C=C1\CSc2ccccc2C1=O	> 64 µg/mL	-0.02	> 64 µg/mL	0 mm	> 128 µg/mL	0 mm	74.1%	2	> 64 µg/mL	> 64 µg/mL	0 mm	> 64 µg/mL	0.36	> 128 µg/mL	0%	> 128 µg/mL	> 64 µg/mL	

From ChEMBL document CHEMBL5143672, “New diarylpentanoids and chalcones as potential antimicrobial adjuvants” (2022)
